Consider 9 compounds from patent US11203610B2, “2′3′ cyclic dinucleotides with phosphonate bond activating the sting adaptor protein” (INSTITUTE OF ORGANIC CHEMISTRY AND BIOCHEMISTRY ASCR, V.V.I., priority 2017, dated 2021).

Test [1] addresses T1, WT STING (Homo sapiens, UniProt Q86WV6, H232R). As to the kind of experiment: Digitonin assay using 293T wtSTING-FL reporter cells. The test is classed as cell-based. The note with it: 293T wtSTING-FL cells; 30 minutes in Digitonin buffer, then 5 hours; ISRE firefly luciferase reporter; 8-point dose-response curve; read-out: Digitonin assay EC50 (μmol · l^−1) WT STING. An excerpt:
ISRE Reporter Plasmid (pGL64.27-4xISRE)
Two complementary oligonucleotides of the sequence […] […] […] […] […] The oligonucleotides were mixed in equal molar amounts, hybridized, and cleaved by restriction endonucleases HindIII (cat. #. R0104S, NEB, Ipswich, USA) and BglII (cat. #R0144S, NEB, Ipswich, USA). Ultimately, they were ligated into plasmid pGL4.27 (cat. #E6651, Promega, Madison, USA) linearized with the same enzymes. As result the sequence with four ISRE sites was placed upstream of the minimum promoter of firefly luciferase reporter gene.
After 5 minutes incubation at room temperature (RT), 250 μL of the mixture was added dropwise to the cells in one well. Cells were incubated 36 hours at 37° C. with 5% CO2, and then detached with 0.05% Trypsin and 0.22 g/L EDTA (both cat. #L0941, Biowest, Riverside, USA).
Transfected cells were seeded onto poly-D-lysine coated six well plates at density 50,000 cells per 1 cm^2 in DMEM medium with high glucose containing 10% heat inactivated FBS, 30 g/mL blasticidin (cat. #ant-bl-05, InvivoGen, San Diego, USA), 0.06 mg/ml Penicillin G and 0.1 mg/ml Streptomycin Sulfate (both cat. #. L0018, Biowest, Riverside, USA). The medium was replenished every 3-4 days until visible colonies of cells resistant to blasticidin were formed.
Blasticidin resistant cells stably expressing WT STING were further transfected with […] plasmid following the same procedure as described above. […] Homogeneous culture of stably double transfected cells was prepared by limiting dilution of cells in 96 well plates and wells with cells were selected that originated from a single cell.
The medium was removed next day and three fold serial dilutions of compounds in Digitonin buffer containing 50 mmol·l^−1 HEPES (cat. #H3375, Sigma Aldrich, Czech Republic) pH 7.0, 100 mmol·l^−1 KCl, 3 mmol·l^−1 MgCl2, 0.1 mmol·l^−1 DTT (cat. #D0632, Sigma Aldrich, Czech Republic), 85 mmol·l^−1 Sucrose (cat. #S7903, Sigma Aldrich, Czech Republic), 0.2% BSA (cat. #A2153, Sigma Aldrich, Czech Republic), 1 mmol·l^−1 ATP (cat. #A1852, Sigma Aldrich, Czech Republic), 0.1 mmol·l^−1 GTP (cat. #G8877, Sigma Aldrich, Czech Republic), and 10 μg/mL Digitonin A (cat. #D141, Sigma Aldrich, Czech Republic) were added to the cells. The buffer was removed after 30 minutes incubation at 37° C. with 5% CO2, the cells were washed once with 100 μl of cultivation medium, and 100 μl of medium was added to each well. The plates with cells were incubated for 5 hours at 37° C. with 5% CO2, 50 μl of the medium was removed and 30 μl of ONE-Glo™ Luciferase Assay System reagent (cat. #E6120, Promega, Madison, USA) was added to each well. Luminescence was read on Synergy H1 (Biotek, Winooski, USA).
Target sequence in this assay (Q86WV6 whole entry H232R): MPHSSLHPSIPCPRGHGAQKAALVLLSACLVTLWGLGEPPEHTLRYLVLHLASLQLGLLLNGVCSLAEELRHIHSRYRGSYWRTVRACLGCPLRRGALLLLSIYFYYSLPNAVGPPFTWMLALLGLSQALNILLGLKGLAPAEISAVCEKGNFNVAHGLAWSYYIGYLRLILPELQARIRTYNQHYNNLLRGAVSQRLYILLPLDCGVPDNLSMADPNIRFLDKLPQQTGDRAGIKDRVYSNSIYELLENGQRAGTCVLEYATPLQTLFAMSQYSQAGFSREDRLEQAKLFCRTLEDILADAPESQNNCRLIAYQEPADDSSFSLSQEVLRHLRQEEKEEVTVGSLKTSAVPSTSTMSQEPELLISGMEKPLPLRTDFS
For orientation: In a reporter assay the amount or activity of a reporter protein is the signal.

The next test addresses T2, AQ STING (G230A-R293Q) (Homo sapiens, UniProt Q86WV6, G230A/H232R/R293Q).
T2 construct: truncated human WT STING or AQ STING (amino acid residues 140-343); 8xHis (N, cleaved yes); SUMO (N, cleaved yes); made in house; host or cells: E. coli Rosetta-gami B (DE3)
As to the kind of experiment: Differential Scanning Fluorimetry with AQ STING. The format is binding. The note with it: thermal shift vs STING apoprotein; 150 μM CDN; 0.1 mg/ml truncated human AQ STING; SYPRO Orange; read-out: DSF ΔTm (° C.) AQ STING. As for the experimental part: (§1) WT STING and AQ STING Proteins
(§2) Purified PCR products were cleaved with restriction enzymes BamHI (cat. #R0136S, NEB, Ipswich, USA) and NotI (cat. #R0189S, NEB, Ipswich, USA) and cloned into the pSUMO vector linearized with the identical enzymes.
(§3) The resin was poured into a chromatography column, washed with 50 ml buffer A (50 mmol·l^−1 TrisCl (pH 8.0), 800 mmol·l^−1 NaCl, 3 mmol·l^−1 β-mercaptol; 10% glycerol; 20 mmol·l^−1 imidazole) and 8-His-SUMO tagged STING proteins were eluted with 15 ml buffer A containing 300 mmol·l^−1 imidazole. […] Proteins were concentrated with Amicon® Ultra-15 10 K device (cat. #UFC901008, Merck Millipore, Billerica, USA) and flash frozen in liquid N2.
(§4) Differential Scanning Fluorimetry with WT STING and AQ STING
(§5) 20 μL solutions of the reaction mixtures were pipetted in triplicates into 96 well optical reaction plates and thermal denaturation of samples were performed on real time PCR cycler (LightCycler® 480 Instrument II—Roche, Basel, Switzerland). The first derivative of the thermal denaturation curves was performed to calculate denaturing temperatures of STING—CDN complexes and STING apoproteins. The thermal shift for each CDN was calculated by subtracting the average denaturing temperature of STING apoprotein from the average denaturing temperature of STING CDN complex.
(DSF heats the sample and reads unfolding from a dye or from intrinsic fluorescence.)

Test [2] has as its target T1, WT STING. As to the kind of experiment: Differential Scanning Fluorimetry with WT STING. The test is classed as binding. Details: truncated human WT STING or AQ STING (amino acid residues 140-343); 8xHis (N, cleaved yes); SUMO (N, cleaved yes); made in house; host or cells: E. coli Rosetta-gami B (DE3). The note with it: thermal shift vs STING apoprotein; 150 μM CDN; 0.1 mg/ml truncated human WT STING; SYPRO Orange; read-out: DSF ΔTm (° C.) WT STING. As for the experimental part: as §1, §2, §3, §4, §5
Target sequence in this assay (Q86WV6 140-343 H232R): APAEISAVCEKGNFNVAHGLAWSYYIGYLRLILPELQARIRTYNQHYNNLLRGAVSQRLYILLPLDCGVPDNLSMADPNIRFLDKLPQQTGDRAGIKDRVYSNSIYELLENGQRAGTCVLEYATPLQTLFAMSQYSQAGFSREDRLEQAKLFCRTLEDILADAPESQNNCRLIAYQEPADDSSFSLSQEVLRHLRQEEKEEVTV

T2 sequence (Q86WV6 140-343 G230A/H232R/R293Q): as the sequence (Q86WV6 140-343 H232R) above, with G91A, R154Q counted along it

For `Nc1nc2c(ncn2[C@@H]2O[C@@H]3COP(=O)(S)O[C@@H]4[C@@H](OCP(=O)(O)O[C@@H]2[C@@H]3O)O[C@@H](n2cnc3c(N)ncnc32)[C@@H]4O)c(=O)[nH]1` (stereo partly drawn) [Compound 39, (1R,6R,8R,9R,10S,15R,17R,18R)-17-(2-amino-6-oxo-6,9-dihydro-1H-purin-9-yl)-8-(6-amino-9H-purin-9-yl)-3,9,18-trihydroxy-12-sulfanyl-2,5,7,11,13,16-hexaoxa-3λ^5,12λ^5-diphosphatricyclo[13.2.1.0^6,10]octadecane-3,12-dione], the EC50 on WT STING [1] was determined as 80 nM. The results for the ΔTm at 150 µM at AQ STING (G230A-R293Q) and at WT STING [2] were 17.2 °C and 11 °C, respectively.
For `Nc1nc2c(ncn2[C@@H]2O[C@@H]3COP(=O)(O)O[C@@H]4[C@@H](OCP(=O)(O)O[C@@H]2[C@@H]3O)O[C@@H](n2cnc3c(N)ncnc32)[C@@H]4O)c(=O)[nH]1` [Compound 40, (1R,6R,8R,9R,10S,15R,17R,18R)-17-(2-amino-6-oxo-6,9-dihydro-1H-purin-9-yl)-8-(6-amino-9H-purin-9-yl)-3,9,12,18-tetrahydroxy-2,5,7,11,13,16-hexaoxa-3λ^5,12λ^5-diphosphatricyclo[13.2.1.0^6,10]octadecane-3,12-dione], in that order: 20 nM, 18.7 °C and 10.8 °C.
Consider `Nc1nc2c(ccn2[C@@H]2O[C@@H]3COP(=O)(O)O[C@@H]4[C@@H](OCP(=O)(O)O[C@@H]2[C@@H]3O)O[C@@H](n2cnc3c(N)ncnc32)[C@@H]4O)c(=O)[nH]1` [Compound 41, (1R,6R,8R,9R,10S,15R,17R,18R)-17-{2-amino-4-oxo-3H,4H,7H-pyrrolo[2,3-d]pyrimidin-7-yl}-8-(6-amino-9H-purin-9-yl)-3,9,12,18-tetrahydroxy-2,5,7,11,13,16-hexaoxa-3λ^5,12λ^5-diphosphatricyclo[13.2.1.0^6,10]octadecane-3,12-dione], for which the EC50 at WT STING [1] stood at 1900 nM. In addition, the ΔTm at 150 µM amounted to 9.1 °C at AQ STING (G230A-R293Q) and 1.7 °C on WT STING [2].
Take `Cc1cn([C@@H]2O[C@@H]3COP(=O)(O)O[C@@H]4[C@@H](OCP(=O)(O)O[C@@H]2[C@@H]3O)O[C@@H](n2cnc3c(N)ncnc32)[C@@H]4O)c2nc(N)[nH]c(=O)c12` [Compound 42, (1R,6R,8R,9R,10S,15R,17R,18R)-17-{2-amino-5-methyl-4-oxo-3H,4H,7H-pyrrolo[2,3-d]pyrimidin-7-yl}-8-(6-amino-9H-purin-9-yl)-3,9,12,18-tetrahydroxy-2,5,7,11,13,16-hexaoxa-3λ^5,12λ^5-diphosphatricyclo[13.2.1.0^6,10]octadecane-3,12-dione]: on WT STING [1], the EC50 is 45400 nM. The ΔTm at 150 µM on AQ STING (G230A-R293Q) stood at 2.1 °C; on WT STING [2], 0.1 °C.
On the same counts, the results for `Nc1nc2c(ncn2[C@@H]2O[C@@H]3OCP(=O)(O)O[C@H]4[C@@H](O)[C@H](n5cnc6c(N)ncnc65)O[C@@H]4COP(=O)(O)O[C@@H]2[C@@H]3O)c(=O)[nH]1` [Compound 43, (1R,6R,8R,9R,10S,15R,17R,18S)-17-(2-amino-6-oxo-6,9-dihydro-1H-purin-9-yl)-8-(6-amino-9H-purin-9-yl)-3,9,12,18-tetrahydroxy-2,4,7,11,14,16-hexaoxa-3λ^5,12λ^5-diphosphatricyclo[13.2.1.0^6,10]octadecane-3,12-dione] are 5 nM, 16.6 °C and 8 °C.
As to `Nc1nc2c(ncn2[C@@H]2O[C@@H]3OCP(=O)(O)O[C@@H]4[C@@H](OCP(=O)(O)O[C@@H]2[C@@H]3O)O[C@@H](n2cnc3c(N)ncnc32)[C@@H]4O)c(=O)[nH]1` [Compound 44, (1R,6R,8R,9R,10S,15R,17R,18S)-17-(2-amino-6-oxo-6,9-dihydro-1H-purin-9-yl)-8-(6-amino-9H-purin-9-yl)-3,9,12,18-tetrahydroxy-2,5,7,11,14,16-hexaoxa-3λ^5,12λ^5-diphosphatricyclo[13.2.1.0^6,10]octadecane-3,12-dione], the EC50 at WT STING [1] was 330 nM. The ΔTm at 150 µM came out at 10.3 °C at AQ STING (G230A-R293Q) and 2.6 °C on WT STING [2].
As to `Nc1nc2c(ncn2[C@@H]2O[C@@H]3OCP(=O)(O)O[C@H]4[C@H](O)[C@H](n5cnc6c(N)ncnc65)O[C@@H]4COP(=O)(O)OC2C3O)c(=O)[nH]1` (stereo partly drawn) [Compound 45, (6R,8R,9S,10S,15R,17R)-17-(2-amino-6-oxo-6,9-dihydro-1H-purin-9-yl)-8-(6-amino-9H-purin-9-yl)-3,9,12,18-tetrahydroxy-2,4,7,11,14,16-hexaoxa-3λ^5,12λ^5-diphosphatricyclo[13.2.1.0^6,10]octadecane-3,12-dione], on WT STING [1], the concentration giving a half-maximal response (EC50) came out at 10 nM. Moreover, the figures for the ΔTm at 150 µM on AQ STING (G230A-R293Q) and on WT STING [2] were 25.3 °C and 18.7 °C, respectively.
As to `Nc1nc2c(ncn2[C@@H]2O[C@@H]3OCP(=O)(O)O[C@H]4[C@@H](F)[C@H](n5cnc6c(N)ncnc65)O[C@@H]4COP(=O)(O)O[C@@H]2[C@@H]3O)c(=O)[nH]1` [Compound 46, (1R,6R,8R,9R,10R,15R,17R,18S)-17-(2-amino-6-oxo-6,9-dihydro-1H-purin-9-yl)-8-(6-amino-9H-purin-9-yl)-9-fluoro-3,12,18-trihydroxy-2,4,7,11,14,16-hexaoxa-3λ^5,12λ^5-diphosphatricyclo[13.2.1.0^6,10]octadecane-3,12-dione], on WT STING [1], the EC50 was 10 nM. Moreover, the results for the ΔTm at 150 µM at AQ STING (G230A-R293Q) and at WT STING [2] were 26.2 °C and 18.7 °C, respectively.
With `Nc1nc2c(ncn2[C@@H]2O[C@@H]3OCP(=O)(O)O[C@H]4[C@@H](O)[C@H](n5ccc6c(N)ncnc65)O[C@@H]4COP(=O)(O)O[C@@H]2[C@@H]3O)c(=O)[nH]1` [Compound 47, (1R,6R,8R,9R,10S,15R,17R,18S)-17-(2-amino-6-oxo-6,9-dihydro-1H-purin-9-yl)-8-{4-amino-7H-pyrrolo[2,3-d]pyrimidin-7-yl}-3,9,12,18-tetrahydroxy-2,4,7,11,14,16-hexaoxa-3λ^5,12λ^5-diphosphatricyclo[13.2.1.0^6,10]octadecane-3,12-dione], at WT STING [1], the concentration for a half-maximal effect (EC50) worked out at 100 nM. The ΔTm at 150 µM is 10.8 °C on AQ STING (G230A-R293Q) and 3.4 °C at WT STING [2].

A word on the EC50: it is the concentration at which the effect is half-maximal. Broadly, the ΔTm is the change in melting temperature against a reference sample.
